One data set in a line: MTT cell viability assay. It is filed as cell-based, human. Particulars: human, HaCaT keratinocyte cells (healthy control line), 24 h, compounds 0.01–40 μM, healthy control line, read-out: In Vitro Cytotoxicity, EC50 ± SD, HaCaT. From the text: (§1) Initially, we phenotypically screened the synthesized compounds over a panel of tumor cell lines composed of HEPG2, A375, SHSY5Y, MCF7, and A549 derived from liver tumor, melanoma, neuroblastoma, breast cancer, and lung adenocarcinoma, respectively. We also considered the HaCaT cell line, coming from keratinocytes, as a healthy control line. As reference, cytotoxic chemotherapeutic agent 5-fluorouracil (5-FU) has been used. The results obtained performing the MTT (3-(4,5-dimethylthiazolyl-2)-2,5-diphenyltetrazolium bromide) assay are summarized in Table .
(§2) The human neuroblastoma SHSY5Y, melanoma A375, human breast cancer MCF7, nonsmall lung cancer A549, and human epidermal keratinocyte HaCaT cell lines were obtained from ATCC and were grown in Dulbecco’s Modified Eagle Medium (DMEM) supplemented with 10% (v/v) FBS, 2 mM L-glutamine, 100 U/mL penicillin, and 0.1 mg/mL streptomycin.
(§3) Cell viability was established by measuring mitochondrial metabolic activity with MTT. In brief, HEPG2 (1 × 10^4 cells/well), A375 (2 × 10^3 cells/well), HaCaT (3 × 10^3 cells/well), A549 (3 × 10^3 cells/well), SHSY5Y (2 × 10^4 cells/well), and MCF 7 (5 × 10^3 cells/well) were plated into 96-well plates for 24 h, then the compounds (0.01–40 μM) were added. After 24h, cells were replaced with a fresh medium containing 0.5 mg/mL MTT. Cells were incubated 1–3 h at 37 °C, then the medium was discarded, and formazan blue crystals in the cells were dissolved in 100 μL per well of a solution containing isopropanol/HCl 0.1 M. The absorbance was measured at 570 nm using a microplate reader (Multiskan Go, Thermo Scientific, Waltham, MA, USA). Cell viability was expressed as a percentage relative to the untreated cells cultured in medium with 0.1% DMSO and set to 100%, whereas 10% DMSO was used as positive control and set to 0% of viability. The EC50 values were calculated using GraphPad Prism 8.0 software by nonlinear regression of dose–response inhibition.
In general terms: Formazan colour is commonly taken as a measure of viable cells.

The test system of another data set is HaCaT. Kind of data set: MTT cell viability assay. The settings on record: in words. In kind it is cell-based, human.
Excerpt: as §1, §2, §3

In the next data set the test system is HEPG2. Kind of data set: MTT cell viability assay. Particulars: Homo sapiens, 24 h, compounds 0.01–40 μM, read-out: In Vitro Cytotoxicity, EC50 ± SD, HEPG2. It is filed as cell-based.
Excerpt: as §1
The human hepatoma HEPG2 cell line was obtained from American Type Culture Collection (ATCC, Rockville, MD, USA). Cells were grown in Eagle’s Minimum Essential Medium (EMEM) supplemented with 10% (v/v) fetal bovine serum (FBS), 2 mM L-glutamine, 1% (v/v) nonessential amino acids, 100 U/mL penicillin, and 0.1 mg/mL streptomycin.
as §3

For another data set, the system named is MCF7. Kind of data set: MTT cell viability assay. In kind it is cell-based. The settings on record: Homo sapiens, 24 h, compounds 0.01–40 μM, read-out: In Vitro Cytotoxicity, EC50 ± SD, MCF7.
Excerpt: as §1, §2, §3

For a further data set, the system named is A375. Kind of data set: MTT cell viability assay. In kind it is cell-based. The settings on record: Homo sapiens, A-375, 24 h, compounds 0.01–40 μM, read-out: In Vitro Cytotoxicity, EC50 ± SD, A375.
Excerpt: as §1, §2, §3

A further data set relates to SHSY5Y. Kind of data set: MTT cell viability assay. Particulars: Homo sapiens, SH-SY5Y, 24 h, compounds 0.01–40 μM, read-out: In Vitro Cytotoxicity, EC50 ± SD, SHSY5Y. In kind it is cell-based.
Excerpt: as §1, §2, §3

The test system of the next data set is A549. Kind of data set: MTT cell viability assay. Particulars: Homo sapiens, 24 h, compounds 0.01–40 μM, read-out: In Vitro Cytotoxicity, EC50 ± SD, A549. It is filed as cell-based.
Excerpt: as §1, §2, §3

The values below come from article PMC12362587, “Untargeted Diversity-Oriented Synthesis for the Discovery of New Antitumor Agents: An Integrated Approach of Inverse Virtual Screening, Bioinformatics, and Omics for Target Deconvolution” (Journal of Medicinal Chemistry, 2025).

One may read the EC50 as the concentration giving half of the maximal effect. In the case of `CC(C)(C)CNC(=O)[C@H](Cc1ccccc1)N1Cc2ccccc2OC1=O` [Compound 8, (S)-N-Neopentyl-2-(2-oxo-2H-benzo[e][1,3]oxazin-3(4H)-yl)-3-phenylpropanamide], in the data set “MTT cell viability assay”, the EC50 at 24 h was 34.8 ± 3.79 µM. For the same compound, in the data set with HaCaT, the “cytotoxicity effect over the HaCaT cell lines” value was “exhibited cytotoxicity effect”. Further, the EC50 in the data set with HEPG2 was 21.4 ± 4.94 µM; with MCF7, 13.8 ± 2.28 µM; in the data set with A375 it was 17.5 ± 3.22 µM; in the data set on SHSY5Y it was greater than 40 µM; with A549 it was 15 ± 2.84 µM.
